#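 Cultured in 96-well plates, cells were exposed to test compound for 48 hours across five concentrations. TGI marks complete inhibition of growth.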
# Experiments:
# Test in all cases: inhibition of tumour cell growth, NCI panel, 48 h
# BT-549 breast = test system: BT-549 breast
# SK-MEL-5 melanoma = test system: SK-MEL-5 melanoma
# A549 NSCLC = test system: A549 NSCLC
# KM12 colon = test system: KM12 colon
# NCI-H23 lung = test system: NCI-H23 lung
# SNB-75 CNS = test system: SNB-75 CNS
# SR leukemia = test system: SR leukemia
# DU-145 prostate = test system: DU-145 prostate
# UACC-257 melanoma = test system: UACC-257 melanoma
# HCC-2998 colon = test system: HCC-2998 colon
# OVCAR-3 ovarian = test system: OVCAR-3 ovarian
# HCT-116 colon = test system: HCT-116 colon
# EKVX NSCLC = test system: EKVX NSCLC
# HS 578T breast = test system: HS 578T breast
# PC-3 prostate = test system: PC-3 prostate
# MCF7 breast = test system: MCF7 breast
# M14 melanoma = test system: M14 melanoma
# HL-60(TB) leukemia = test system: HL-60(TB) leukemia
# T-47D breast = test system: T-47D breast
# MDA-MB-435 = test system: MDA-MB-435
# NCI-H226 lung = test system: NCI-H226 lung
# SK-MEL-2 melanoma = test system: SK-MEL-2 melanoma
# SW-620 colon = test system: SW-620 colon
# A498 renal = test system: A498 renal
# TK-10 renal = test system: TK-10 renal
# HT29 colon = test system: HT29 colon
# UACC-62 melanoma = test system: UACC-62 melanoma
# OVCAR-8 ovarian = test system: OVCAR-8 ovarian
# LOX IMVI melanoma = test system: LOX IMVI melanoma
# RPMI-8226 leukemia = test system: RPMI-8226 leukemia
# MOLT-4 leukemia = test system: MOLT-4 leukemia
# RXF 393 renal = test system: RXF 393 renal
# IGROV1 ovarian = test system: IGROV1 ovarian
# U251 CNS = test system: U251 CNS
# HOP-62 NSCLC = test system: HOP-62 NSCLC
# CAKI-1 renal = test system: CAKI-1 renal
# CCRF-CEM leukemia = test system: CCRF-CEM leukemia
# COLO 205 colon = test system: COLO 205 colon
# SF-268 CNS = test system: SF-268 CNS
# HOP-92 NSCLC = test system: HOP-92 NSCLC
# SK-OV-3 ovarian = test system: SK-OV-3 ovarian
# MDA-N = test system: MDA-N
# MALME-3M melanoma = test system: MALME-3M melanoma
# NCI-H460 lung = test system: NCI-H460 lung
# OVCAR-5 ovarian = test system: OVCAR-5 ovarian
# SK-MEL-28 melanoma = test system: SK-MEL-28 melanoma
# NCI-H522 lung = test system: NCI-H522 lung
# HCT-15 colon = test system: HCT-15 colon
# NCI/ADR-RES ovarian = test system: NCI/ADR-RES ovarian
# ACHN renal = test system: ACHN renal
# MDA-MB-231 breast = test system: MDA-MB-231 breast
# K-562 leukemia = test system: K-562 leukemia
# OVCAR-4 ovarian = test system: OVCAR-4 ovarian
# 786-0 renal = test system: 786-0 renal
# SF-295 CNS = test system: SF-295 CNS
# SN12C renal = test system: SN12C renal
# UO-31 renal = test system: UO-31 renal
# SNB-19 CNS = test system: SNB-19 CNS
# SF-539 CNS = test system: SF-539 CNS
compound,measurement,setting,value
CC(=O)c1cccc2c1CC1(C2)Cc2ccc3c(c2C1=O)CCC3 (configuration not stated),TGI,BT-549 breast,> 100 µM
same,TGI,SK-MEL-5 melanoma,33.7 µM
same,TGI,A549 NSCLC,> 100 µM
same,TGI,KM12 colon,> 100 µM
same,TGI,NCI-H23 lung,> 100 µM
same,TGI,SNB-75 CNS,> 100 µM
same,TGI,SR leukemia,73.1 µM
same,TGI,DU-145 prostate,> 100 µM
same,TGI,UACC-257 melanoma,43.9 µM
same,TGI,HCC-2998 colon,67.4 µM
same,TGI,OVCAR-3 ovarian,> 100 µM
same,TGI,HCT-116 colon,> 100 µM
same,TGI,EKVX NSCLC,83.3 µM
same,TGI,HS 578T breast,> 100 µM
same,TGI,PC-3 prostate,> 100 µM
same,TGI,MCF7 breast,76.4 µM
same,TGI,M14 melanoma,> 100 µM
same,TGI,HL-60(TB) leukemia,21.3 µM
same,TGI,T-47D breast,> 100 µM
same,TGI,MDA-MB-435,> 100 µM
same,TGI,NCI-H226 lung,> 100 µM
same,TGI,SK-MEL-2 melanoma,> 100 µM
same,TGI,SW-620 colon,> 100 µM
same,TGI,A498 renal,> 100 µM
same,TGI,TK-10 renal,77.6 µM
same,TGI,HT29 colon,> 100 µM
same,TGI,UACC-62 melanoma,> 100 µM
same,TGI,OVCAR-8 ovarian,> 100 µM
same,TGI,LOX IMVI melanoma,> 100 µM
same,TGI,RPMI-8226 leukemia,> 100 µM
same,TGI,MOLT-4 leukemia,> 100 µM
same,TGI,RXF 393 renal,> 100 µM
same,TGI,IGROV1 ovarian,> 100 µM
same,TGI,U251 CNS,> 100 µM
same,TGI,HOP-62 NSCLC,> 100 µM
same,TGI,CAKI-1 renal,> 100 µM
same,TGI,CCRF-CEM leukemia,> 100 µM
same,TGI,COLO 205 colon,92.4 µM
same,TGI,SF-268 CNS,> 100 µM
same,TGI,HOP-92 NSCLC,64.2 µM
same,TGI,SK-OV-3 ovarian,> 100 µM
same,TGI,MDA-N,> 100 µM
same,TGI,MALME-3M melanoma,> 100 µM
same,TGI,NCI-H460 lung,> 100 µM
same,TGI,OVCAR-5 ovarian,> 100 µM
same,TGI,SK-MEL-28 melanoma,> 100 µM
same,TGI,NCI-H522 lung,> 100 µM
same,TGI,HCT-15 colon,> 100 µM
same,TGI,NCI/ADR-RES ovarian,57.5 µM
same,TGI,ACHN renal,> 100 µM
same,TGI,MDA-MB-231 breast,> 100 µM
same,TGI,K-562 leukemia,> 100 µM
same,TGI,OVCAR-4 ovarian,> 100 µM
same,TGI,786-0 renal,> 100 µM
same,TGI,SF-295 CNS,> 100 µM
same,TGI,SN12C renal,> 100 µM
same,TGI,UO-31 renal,> 100 µM
same,TGI,SNB-19 CNS,> 100 µM
same,TGI,SF-539 CNS,> 100 µM
CCOC(=O)N/N=C(/N)Cc1ccccc1,TGI,BT-549 breast,> 100 µM
same,TGI,SK-MEL-5 melanoma,> 100 µM
same,TGI,A549 NSCLC,> 100 µM
same,TGI,KM12 colon,> 100 µM
same,TGI,SNB-75 CNS,> 100 µM
same,TGI,SR leukemia,> 100 µM
same,TGI,DU-145 prostate,> 100 µM
same,TGI,UACC-257 melanoma,> 100 µM
same,TGI,HCC-2998 colon,> 100 µM
same,TGI,OVCAR-3 ovarian,> 100 µM
same,TGI,HCT-116 colon,> 100 µM
same,TGI,EKVX NSCLC,> 100 µM
same,TGI,HS 578T breast,> 100 µM
same,TGI,PC-3 prostate,> 100 µM
same,TGI,MCF7 breast,> 100 µM
same,TGI,M14 melanoma,> 100 µM
same,TGI,HL-60(TB) leukemia,> 100 µM
same,TGI,T-47D breast,> 100 µM
same,TGI,MDA-MB-435,> 100 µM
same,TGI,SK-MEL-2 melanoma,> 100 µM
same,TGI,SW-620 colon,> 100 µM
same,TGI,A498 renal,> 100 µM
same,TGI,TK-10 renal,> 100 µM
same,TGI,UACC-62 melanoma,> 100 µM
same,TGI,OVCAR-8 ovarian,> 100 µM
same,TGI,LOX IMVI melanoma,> 100 µM
same,TGI,MOLT-4 leukemia,> 100 µM
same,TGI,RXF 393 renal,> 100 µM
same,TGI,IGROV1 ovarian,> 100 µM
same,TGI,HOP-62 NSCLC,> 100 µM
same,TGI,CAKI-1 renal,> 100 µM
same,TGI,CCRF-CEM leukemia,> 100 µM
same,TGI,COLO 205 colon,> 100 µM
same,TGI,SF-268 CNS,> 100 µM
same,TGI,HOP-92 NSCLC,> 100 µM
same,TGI,SK-OV-3 ovarian,> 100 µM
same,TGI,MDA-N,> 100 µM
same,TGI,MALME-3M melanoma,> 100 µM
same,TGI,NCI-H460 lung,> 100 µM
same,TGI,OVCAR-5 ovarian,> 100 µM
same,TGI,SK-MEL-28 melanoma,> 100 µM
same,TGI,NCI-H522 lung,> 100 µM
same,TGI,HCT-15 colon,> 100 µM
same,TGI,NCI/ADR-RES ovarian,> 100 µM
same,TGI,ACHN renal,> 100 µM
same,TGI,MDA-MB-231 breast,> 100 µM
same,TGI,K-562 leukemia,> 100 µM
same,TGI,786-0 renal,> 100 µM
same,TGI,SF-295 CNS,> 100 µM
same,TGI,SN12C renal,> 100 µM
same,TGI,UO-31 renal,> 100 µM
same,TGI,SNB-19 CNS,> 100 µM
same,TGI,SF-539 CNS,> 100 µM
